Data on one compound can be found in publication PMC5218480 (PLoS ONE, 2017).

For this test, the system named is MV-4-11 cells. The test can be described thus: Gene expression microarray analysis (Affymetrix PrimeView) and GSEA. The format is cell-based, human. Also on record: RFU PODN (11730768_x_at) / Fold change /veh PODN (11730768_x_at) / RFU LINC00158 (11744669_a_at) / Fold change /veh LINC00158 (11744669_a_at) / RFU DUSP10 (11751237_a_at) / Fold change /veh DUSP10 (11751237_a_at) / RFU ID3 (11757404_x_at) / Fold change /veh ID3 (11757404_x_at) / RFU PLEKHG5 (11737974_s_at) / Fold change /veh PLEKHG5 (11737974_s_at) / RFU LRRC4B (11730491_at) / Fold change /veh LRRC4B (11730491_at) / RFU GIMAP4 (11747438_a_at) / Fold change /veh GIMAP4 (11747438_a_at) / RFU KRT8 (11758183_x_at) / Fold change /veh KRT8 (11758183_x_at) / RFU CNN1 (11734310_a_at) / Fold change /veh CNN1 (11734310_a_at) / RFU VPS37D (11726825_at) / Fold change /veh VPS37D (11726825_at) / RFU C10orf10 (11716522_x_at) / Fold change /veh C10orf10 (11716522_x_at) / RFU KIR2DL2 /// KIR2DL4 /// KIR2DL5A /// KIR2DL5B /// KIR2DS1 /// KIR2DS2 /// KIR2DS3 /// KIR2DS4 /// KIR3DL3 /// KIR3DL3 /// KIR3DS1 (11738374_at) / Fold change /veh KIR2DL2 /// KIR2DL4 /// KIR2DL5A /// KIR2DL5B /// KIR2DS1 /// KIR2DS2 /// KIR2DS3 /// KIR2DS4 /// KIR3DL3 /// KIR3DL3 /// KIR3DS1 (11738374_at) / RFU C1QL1 (11718748_at) / Fold change /veh C1QL1 (11718748_at) / RFU TMPRSS4 (11747572_a_at) / Fold change /veh TMPRSS4 (11747572_a_at) / RFU HAMP (11756126_x_at) / Fold change /veh HAMP (11756126_x_at) / RFU RNFT2 (11725882_a_at) / Fold change /veh RNFT2 (11725882_a_at) / RFU NR4A2 (11747474_a_at) / Fold change /veh NR4A2 (11747474_a_at) / RFU ABCC12 (11746883_a_at) / Fold change /veh ABCC12 (11746883_a_at) / RFU TMEM136 (11760407_x_at) / Fold change /veh TMEM136 (11760407_x_at) / RFU CLDN22 /// WWC2 (11732394_at) / Fold change /veh CLDN22 /// WWC2 (11732394_at) / RFU HLA-DPB1 (11760878_x_at) / Fold change /veh HLA-DPB1 (11760878_x_at) / RFU SPINT1 (11716480_a_at) / Fold change /veh SPINT1 (11716480_a_at) / RFU GAP43 (11754022_s_at) / Fold change /veh GAP43 (11754022_s_at) / RFU A4GNT (11735810_at) / Fold change /veh A4GNT (11735810_at) / RFU PRB3 (11715151_x_at) / Fold change /veh PRB3 (11715151_x_at) / RFU TUBB4B (11761932_at) / Fold change /veh TUBB4B (11761932_at) / RFU CAPN14 (11732068_a_at) / Fold change /veh CAPN14 (11732068_a_at) / RFU TMCC2 (11721928_a_at) / Fold change /veh TMCC2 (11721928_a_at) / RFU IRGQ (11745062_a_at) / Fold change /veh IRGQ (11745062_a_at) / RFU FAM174B (11720279_a_at) / Fold change /veh FAM174B (11720279_a_at) / RFU TMPRSS4 (11748680_a_at) / Fold change /veh TMPRSS4 (11748680_a_at) / RFU FAM212B (11763350_a_at) / Fold change /veh FAM212B (11763350_a_at) / RFU PLEKHG5 (11743358_a_at) / Fold change /veh PLEKHG5 (11743358_a_at) / RFU ZSCAN30 (11745921_a_at) / Fold change /veh ZSCAN30 (11745921_a_at) / RFU CMKLR1 (11741424_a_at) / Fold change /veh CMKLR1 (11741424_a_at) / RFU LOC101060620 /// MAPK8IP1 (11723275_at) / Fold change /veh LOC101060620 /// MAPK8IP1 (11723275_at) / RFU SPTSSB (11747773_x_at) / Fold change /veh SPTSSB (11747773_x_at) / RFU PRSS12 (11739890_at) / Fold change /veh PRSS12 (11739890_at) / RFU BIN1 (11741810_x_at) / Fold change /veh BIN1 (11741810_x_at) / RFU WNT11 (11732464_a_at) / Fold change /veh WNT11 (11732464_a_at) / RFU C10orf10 (11716521_a_at) / Fold change /veh C10orf10 (11716521_a_at) / RFU C5orf56 (11738089_at) / Fold change /veh C5orf56 (11738089_at) / RFU CYB561 (11721691_x_at) / Fold change /veh CYB561 (11721691_x_at) / RFU ANKRD19P (11752326_a_at) / Fold change /veh ANKRD19P (11752326_a_at) / RFU OR2T12 /// OR2T33 /// OR2T8 (11738714_s_at) / Fold change /veh OR2T12 /// OR2T33 /// OR2T8 (11738714_s_at) / RFU VCAN (11748164_a_at) / Fold change /veh VCAN (11748164_a_at) / RFU JSRP1 (11732532_at) / Fold change /veh JSRP1 (11732532_at) / RFU KRTAP10-11 (11738290_x_at) / Fold change /veh KRTAP10-11 (11738290_x_at) / RFU MYO3A (11730013_a_at) / Fold change /veh MYO3A (11730013_a_at) / RFU EBF3 (11725865_a_at) / Fold change /veh EBF3 (11725865_a_at) / RFU CAMK2N1 (11719241_x_at) / Fold change /veh CAMK2N1 (11719241_x_at) / RFU C5orf56 (11738088_a_at) / Fold change /veh C5orf56 (11738088_a_at) / RFU OLFML3 (11715873_a_at) / Fold change /veh OLFML3 (11715873_a_at) / RFU LOC100653217 /// NTM (11731650_a_at) / Fold change /veh LOC100653217 /// NTM (11731650_a_at) / RFU MAPK11 (11762145_a_at) / Fold change /veh MAPK11 (11762145_a_at) / RFU FIZ1 (11724087_x_at) / Fold change /veh FIZ1 (11724087_x_at) / RFU OASL (11726364_x_at) / Fold change /veh OASL (11726364_x_at) / RFU SOX15 (11748057_x_at) / Fold change /veh SOX15 (11748057_x_at) / RFU CD79A (11719716_a_at) / Fold change /veh CD79A (11719716_a_at) / RFU HIST1H1D (11736915_at) / Fold change /veh HIST1H1D (11736915_at) / RFU CASKIN2 (11723855_a_at) / Fold change /veh CASKIN2 (11723855_a_at) / RFU LOC730098 (11760151_x_at) / Fold change /veh LOC730098 (11760151_x_at) / RFU OR4N2 (11742367_at) / Fold change /veh OR4N2 (11742367_at) / RFU PRRT2 (11749266_a_at) / Fold change /veh PRRT2 (11749266_a_at) / RFU SNX32 (11753110_a_at) / Fold change /veh SNX32 (11753110_a_at) / RFU CDHR5 (11726645_a_at) / Fold change /veh CDHR5 (11726645_a_at) / RFU RCAN1 (11760418_a_at) / Fold change /veh RCAN1 (11760418_a_at) / RFU FAM167A (11723789_a_at) / Fold change /veh FAM167A (11723789_a_at) / RFU FAM26E (11764081_at) / Fold change /veh FAM26E (11764081_at) / RFU ISYNA1 (11749810_s_at) / Fold change /veh ISYNA1 (11749810_s_at) / RFU ACY1 (11761880_at) / Fold change /veh ACY1 (11761880_at) / RFU 11764098_at / Fold change /veh 11764098_at / RFU SAMD14 (11745864_x_at) / Fold change /veh SAMD14 (11745864_x_at) / RFU NPB (11741838_a_at) / Fold change /veh NPB (11741838_a_at) / RFU TMPRSS6 (11731388_a_at) / Fold change /veh TMPRSS6 (11731388_a_at) / RFU KRTAP10-2 (11738614_at) / Fold change /veh KRTAP10-2 (11738614_at) / RFU ARHGAP8 /// PRR5-ARHGAP8 (11727945_x_at) / Fold change /veh ARHGAP8 /// PRR5-ARHGAP8 (11727945_x_at) / RFU KRTAP5-7 /// NADSYN1 (11734609_at) / Fold change /veh KRTAP5-7 /// NADSYN1 (11734609_at) / RFU RASL12 (11751679_a_at) / Fold change /veh RASL12 (11751679_a_at) / RFU CDKN2B (11736163_a_at) / Fold change /veh CDKN2B (11736163_a_at) / RFU PRF1 (11729649_at) / Fold change /veh PRF1 (11729649_at) / RFU, ZNF638 /// ZNF638-IT1 / Fold change vs veh, ZNF638 /// ZNF638-IT1 / RFU, PANK3 / Fold change vs veh, PANK3 / RFU, SH3YL1 / Fold change vs veh, SH3YL1 / RFU, ZEB2 / Fold change vs veh, ZEB2 / RFU, NRIP1 / Fold change vs veh, NRIP1 / RFU, PTTG1IP / Fold change vs veh, PTTG1IP / RFU, CAPN2 / Fold change vs veh, CAPN2 / RFU, MED14 / Fold change vs veh, MED14 / RFU, SNORA58 / Fold change vs veh, SNORA58 / RFU, C1orf63 / Fold change vs veh, C1orf63 / RFU, LRRFIP1 / Fold change vs veh, LRRFIP1 / RFU, NDUFAF7 / Fold change vs veh, NDUFAF7 / RFU, SLC12A2 / Fold change vs veh, SLC12A2 / RFU, IBTK / Fold change vs veh, IBTK / RFU, ESF1 / Fold change vs veh, ESF1 / Fold change vs veh, TMEM50B / RFU, TAOK1 / Fold change vs veh, TAOK1 / RFU, ACBD3 / Fold change vs veh, ACBD3 / RFU, TMA16 / Fold change vs veh, TMA16 / RFU, RWDD3 / Fold change vs veh, RWDD3 / RFU, BCAT1 / Fold change vs veh, BCAT1 / RFU, EDEM3 / Fold change vs veh, EDEM3 / RFU, TMEM33 / Fold change vs veh, TMEM33 / RFU, WDR75 / Fold change vs veh, WDR75 / RFU, AHCTF1 / Fold change vs veh, AHCTF1 / RFU, TFRC / Fold change vs veh, TFRC / RFU, ZDHHC17 / Fold change vs veh, ZDHHC17 / RFU, NOM1 / Fold change vs veh, NOM1 / RFU, ARL8B / Fold change vs veh, ARL8B / RFU, ZBTB11 / Fold change vs veh, ZBTB11 / RFU, TAMM41 / Fold change vs veh, TAMM41 / RFU, KIAA1704 /// LOC100996395 / Fold change vs veh, KIAA1704 /// LOC100996395 / RFU, ING1 / Fold change vs veh, ING1 / RFU, TRMT61B / Fold change vs veh, TRMT61B / RFU, FUBP3 / Fold change vs veh, FUBP3 / RFU, TP53 / Fold change vs veh, TP53 / RFU, TNKS2 / Fold change vs veh, TNKS2 / RFU, ZFP14 / Fold change vs veh, ZFP14 / RFU, ACTR2 / Fold change vs veh, ACTR2 / RFU, PPP3R1 / Fold change vs veh, PPP3R1 / RFU, PIK3R1 / Fold change vs veh, PIK3R1 / RFU, HNRNPA1 / Fold change vs veh, HNRNPA1 / RFU, RNF170 / Fold change vs veh, RNF170 / RFU, ZNF28 / Fold change vs veh, ZNF28 / RFU, RNGTT / Fold change vs veh, RNGTT / RFU, OGT / Fold change vs veh, OGT / RFU, BRD1 / Fold change vs veh, BRD1 / RFU, MARS / Fold change vs veh, MARS / RFU, ZNF655 / Fold change vs veh, ZNF655 / RFU, FAHD1 / Fold change vs veh, FAHD1 / RFU, BDP1 / Fold change vs veh, BDP1 / RFU, LRRCC1 / Fold change vs veh, LRRCC1 / RFU, ARID1A / Fold change vs veh, ARID1A / RFU, ZNF146 / Fold change vs veh, ZNF146 / RFU, ZNF330 / Fold change vs veh, ZNF330 / RFU, GPN3 / Fold change vs veh, GPN3 / RFU, C9orf123 / Fold change vs veh, C9orf123 / RFU, N4BP2L2 / Fold change vs veh, N4BP2L2 / RFU, ARFIP1 / Fold change vs veh, ARFIP1 / RFU, FAM179B / Fold change vs veh, FAM179B / RFU, BCL10 / Fold change vs veh, BCL10 / RFU, UHRF1BP1L / Fold change vs veh, UHRF1BP1L / RFU, BET1 / Fold change vs veh, BET1 / RFU, CNOT2 / Fold change vs veh, CNOT2 / RFU, ZNF268 / Fold change vs veh, ZNF268 / Fold change vs veh, ZNF507 / RFU, DGCR2 / Fold change vs veh, DGCR2 / RFU, WDSUB1 / Fold change vs veh, WDSUB1 / Fold change vs veh, HSP90B1 /// MIR3652 / RFU, ADSS / Fold change vs veh, ADSS / RFU, GK / Fold change vs veh, GK / RFU, ZNF148 / Fold change vs veh, ZNF148 / RFU, TAF9 / Fold change vs veh, TAF9 / RFU, SLC1A5 / Fold change vs veh, SLC1A5 / RFU, SLMO2 / Fold change vs veh, SLMO2 / RFU, ABCC4 / Fold change vs veh, ABCC4 / RFU, LOC101060439 /// RAP1B / Fold change vs veh, LOC101060439 /// RAP1B / RFU, RFX7 / Fold change vs veh, RFX7 / RFU, GTPBP10 / Fold change vs veh, GTPBP10 / RFU, CNEP1R1 / Fold change vs veh, CNEP1R1 / RFU, BIVM-ERCC5 /// ERCC5 / Fold change vs veh, BIVM-ERCC5 /// ERCC5 / RFU, ILF3 / Fold change vs veh, ILF3 / RFU 11762660_at / Fold change /veh 11762660_at / RFU VCAN (11757783_s_at) / Fold change /veh VCAN (11757783_s_at) / RFU DDX43 (11728927_at) / Fold change /veh DDX43 (11728927_at) / RFU KRT8 (11758188_x_at) / Fold change /veh KRT8 (11758188_x_at) / RFU NKD1 (11759106_at) / Fold change /veh NKD1 (11759106_at) / RFU SRD5A1 (11742802_a_at) / Fold change /veh SRD5A1 (11742802_a_at) / RFU TPSAB1 /// TPSB2 (11721975_s_at) / Fold change /veh TPSAB1 /// TPSB2 (11721975_s_at) / RFU GSTM3 (11746129_a_at) / Fold change /veh GSTM3 (11746129_a_at) / RFU IL23R (11737362_x_at) / Fold change /veh IL23R (11737362_x_at) / RFU TMEM51 (11727254_a_at) / Fold change /veh TMEM51 (11727254_a_at) / RFU PIWIL2 (11732686_x_at) / Fold change /veh PIWIL2 (11732686_x_at) / RFU ORM1 (11744905_x_at) / Fold change /veh ORM1 (11744905_x_at) / RFU CCDC152 (11743942_at) / Fold change /veh CCDC152 (11743942_at) / RFU ECM1 (11717891_a_at) / Fold change /veh ECM1 (11717891_a_at) / RFU IL23R (11748794_a_at) / Fold change /veh IL23R (11748794_a_at) / RFU TNFAIP8L3 (11732012_x_at) / Fold change /veh TNFAIP8L3 (11732012_x_at) / RFU MBOAT4 (11741988_at) / Fold change /veh MBOAT4 (11741988_at) / RFU 11764193_at / Fold change /veh 11764193_at / RFU TMEM53 (11763286_at) / Fold change /veh TMEM53 (11763286_at) / RFU MAGEB2 (11727129_at) / Fold change /veh MAGEB2 (11727129_at) / RFU TMEM200A (11744735_a_at) / Fold change /veh TMEM200A (11744735_a_at) / RFU CCDC152 (11751479_a_at) / Fold change /veh CCDC152 (11751479_a_at) / RFU FAM211A (11726209_a_at) / Fold change /veh FAM211A (11726209_a_at) / RFU RGS16 (11746705_a_at) / Fold change /veh RGS16 (11746705_a_at) / RFU VCAN (11755009_s_at) / Fold change /veh VCAN (11755009_s_at) / RFU RHOB (11743442_s_at) / Fold change /veh RHOB (11743442_s_at) / RFU RGS16 (11720943_a_at) / Fold change /veh RGS16 (11720943_a_at) / RFU RGS16 (11720944_at) / Fold change /veh RGS16 (11720944_at) / RFU, VPS4B / Fold change vs veh, VPS4B / RFU, CREB1 / Fold change vs veh, CREB1 / RFU, DNAJC13 / Fold change vs veh, DNAJC13 / RFU, GNAQ / Fold change vs veh, GNAQ / RFU, CDK5R1 / Fold change vs veh, CDK5R1 / RFU, ZRANB3 / Fold change vs veh, ZRANB3 / RFU, CUL4A / Fold change vs veh, CUL4A / RFU, CCNY / Fold change vs veh, CCNY / RFU, UFL1 / Fold change vs veh, UFL1 / RFU, COG3 / Fold change vs veh, COG3 / RFU, DIAPH2 / Fold change vs veh, DIAPH2 / RFU, SKA2 / Fold change vs veh, SKA2 / RFU, AFF3 / Fold change vs veh, AFF3 / RFU, LMF1 / Fold change vs veh, LMF1 / RFU, IPO11 / Fold change vs veh, IPO11 / RFU, DFFB / Fold change vs veh, DFFB / RFU, FOXP1 / Fold change vs veh, FOXP1 / RFU, CARD8 / Fold change vs veh, CARD8 / RFU, STRN3 / Fold change vs veh, STRN3 / RFU, ADK / Fold change vs veh, ADK / RFU, RASSF2 / Fold change vs veh, RASSF2 / RFU, WIPF1 / Fold change vs veh, WIPF1 / RFU, LARP1B / Fold change vs veh, LARP1B / RFU, RASA1 / Fold change vs veh, RASA1 / RFU, RB1 / Fold change vs veh, RB1 / RFU, PPFIA1 / Fold change vs veh, PPFIA1 / RFU, MAT2A / Fold change vs veh, MAT2A / RFU, CCT5 / Fold change vs veh, CCT5 / RFU, WDR92 / Fold change vs veh, WDR92 / RFU, CUX1 / Fold change vs veh, CUX1 / RFU, TTC7A / Fold change vs veh, TTC7A / RFU, TMEM135 / Fold change vs veh, TMEM135 / RFU, DEPTOR / Fold change vs veh, DEPTOR / RFU, CPM / Fold change vs veh, CPM / RFU, DNAJB6 / Fold change vs veh, DNAJB6 / RFU, CACNA2D3 / Fold change vs veh, CACNA2D3 / RFU, DTX4 / Fold change vs veh, DTX4 / RFU, TFCP2 / Fold change vs veh, TFCP2 / RFU, GMCL1 /// GMCL1P1 / Fold change vs veh, GMCL1 /// GMCL1P1 / RFU, AEBP2 / Fold change vs veh, AEBP2 / RFU, SNHG1 /// SNORD22 /// SNORD25 /// SNORD26 /// SNORD27 /// SNORD28 /// SNORD29 /// SNORD31 / Fold change vs veh, SNHG1 /// SNORD22 /// SNORD25 /// SNORD26 /// SNORD27 /// SNORD28 /// SNORD29 /// SNORD31 / Fold change (Aza/veh), C12orf56 (ProbeSet 11735607_a_at) / Fold change (ACY-1035/veh), C12orf56 (ProbeSet 11735607_a_at) / Fold change (Aza/veh), FGFR1OP (ProbeSet 11751329_s_at) / Fold change (ACY-1035/veh), FGFR1OP (ProbeSet 11751329_s_at) / Fold change (Aza/veh), VPS36 (ProbeSet 11739960_a_at) / Fold change (ACY-1035/veh), VPS36 (ProbeSet 11739960_a_at) / RFU SYPL1 (11715823_x_at) / Fold change /veh SYPL1 (11715823_x_at) / RFU IGFBP7 (11715501_s_at) / Fold change /veh IGFBP7 (11715501_s_at) / RFU REEP3 (11722064_at) / Fold change /veh REEP3 (11722064_at) / RFU IGLL1 (11728026_x_at) / Fold change /veh IGLL1 (11728026_x_at): dose or concentration left out as unconfirmed. As to conditions: MV-4-11 cells, 48 hours.

For the compound `Nc1ccc(-c2cccs2)cc1NC(=O)c1ccc2c(c1)cc(C1CC1)n2CCN1CCOCC1` [ACY-1035], the “Fold change /veh RCAN1 (11760418_a_at)” value is 1.01.
